# pEC50, pIC50: −log10 of the molar value. Where two headings read alike, the source gives them in different places.
# Tests used:
# HCMV strain AD169 = experiment: HCMV primary assay (CPE), strain AD169, HFF cells; type: cell-based, Human Cytomegalovirus
# Protocol: The antiviral activity of the compound against HCMV in the described Primary assay was measured by treating primary Human foreskin fibroblast (HFF) cells infected with HCMV with a range of compound concentrations—description of methods for this assay can be found in section 1.3.2.1. […] . Additional tested assay parameters in this Primary assay can be found in Table 3.2.1 and include EC90, S150, and S190 values—descriptions of those data points can be found in section 3.2.1.
# [1] = Cytotoxicity concurrent with HCMV AD169 primary assay; type: cell-based, human; conditions: human
# VZV strain Ellen = experiment: VZV primary assay, strain Ellen, HFF cells; type: cell-based, Varicella Zoster Virus
# Protocol: (§1) Assays were performed in monolayers as described. […] Toxicity was measured using CTG as above. […] Toxicity was measured using CTG as above.
# (§2) Monolayers of HFF cells were prepared in six-well plates and incubated at 37° C. for 2 d to allow the cells to reach confluency. Media was then aspirated from the wells and 0.2 mL of virus-containing solution was added to each of three wells to yield 20-30 plaques in each well. The virus was allowed to adsorb to the cells for 1 h and the plates were agitated every 15 minutes. Compounds were diluted in assay media consisting of MEM with Earl's salts supplemented with 2% FBS, glutamine, penicillin, and gentamycin. Diluted drug was added to duplicate wells and the plates were incubated for various times, depending on the virus used. For HSV-1 and -2, the monolayers were then stained with 1% crystal violet in 20% methanol and the unbound dye removed by washing with dH20. For all other assays, the cell monolayer was stained with 1% Neutral Red solution for 4-6 h then the stain was aspirated and the cells were washed with PBS.
# [2] = Cytotoxicity concurrent with VZV Ellen primary assay; type: cell-based; conditions: human
# Protocol: as §1
# HSV1 strain E-377 = experiment: HSV1 primary assay, strain E-377, HFF cells; type: cell-based, Herpes Simplex Virus 1
# Protocol: as §1, §2
# [3] = Cytotoxicity concurrent with HSV1 E-377 primary assay; type: cell-based; conditions: human
# Protocol: as §1
# HSV2 strain G = experiment: HSV2 primary assay, strain G, HFF cells; type: cell-based, herpes simplex virus 2
# Protocol: as §1, §2
# [4] = Cytotoxicity concurrent with HSV2 primary assay; type: cell-based; conditions: human
# Protocol: as §1
# [5] = tested on: Epstein-Barr virus Akata strain; experiment: Epstein-Barr primary assay, Akata strain, Akata cells; type: cell-based
# [6] = tested on: Adenovirus Adenoid75 strain; experiment: Adenovirus primary assay, Adenoid75 strain, HFF cells; type: cell-based; conditions: unidentified adenovirus; for EC90: read-out: EC90
# [7] = Cytotoxicity concurrent with Adenovirus primary assay; type: cell-based; conditions: human
# [8] = tested on: Adenovirus Adenoid75 strain; experiment: Adenovirus secondary assay (yield reduction), Adenoid75 strain, HFF cells; type: cell-based; conditions: unidentified adenovirus
# Protocol: (§3) Monolayers of HFF cells were prepared in 96-well plates and incubated at 37° C. for 1 d to allow the cells to reach confluency. Media was then aspirated from the wells and cells infected at a high MOI. At 1 h following infection, the inocula were removed and the monolayers rinsed with fresh media. […] Drug dilutions were added to the wells and the plates were incubated for various times, depending on the virus used and represents a single replication cycle for the virus. A duplicate set of dilutions were also performed but remained uninfected to serve as a cytotoxicity control and received equal compound exposure. Supernatants from each of the infected wells were subsequently titered using CTG in a TCID50 assay to quantify the progeny virus. For HCMV only, viral yield in the supernatants from the infected cells were titered using qPCR with HCMV primers [NT], and probe [NT].
# [9] = Cytotoxicity concurrent with Adenovirus secondary assay; type: cell-based; conditions: human, Adeno secondary assay, HFF cells
# Protocol: as §3
# [10] = Cytotoxicity concurrent with EBV primary assay; conditions: human
# [11] = tested on: VZV strain 15-6-001 resistant isolate; experiment: microbe, parasite or virus in culture; type: cell-based, Varicella Zoster Virus; conditions: Human alphaherpesvirus 3, HFF
# Protocol: as §1, §2
# [12] = Cytotoxicity concurrent with VZV 15-6-001 primary assay; type: cell-based; conditions: human, HFF cell line
# Protocol: as §1
# CDK9/cyclin T1 = CDK9/cyclin T1 (Homo sapiens (Human), UniProt P50750); experiment: Kinase activity assay, CDK9/cyclin T1; type: biochemical; conditions: Table 3.1.1; 10 μM ATP; 10-dose duplicate, 3-fold serial dilution starting at 10 μM; read-out: Compound IC50 CDK9/cyclin T1
# HFF cells = experiment: Cytotoxicity concurrent with HCMV AD169 primary assay; type: cell-based, human
# [13] = Metabolic stability in mice liver microsomes; conditions: mouse, microsomes, 1 h
# Protocol: Potassium phosphate buffer (Kphos) was prepared by adding 0.647 g potassium phosphate monobasic (KH2PO4) and 3.527 g potassium phosphate dibasic (K2HPO4) to 400 mL of Milli-Q water. pH of the buffer was adjusted to 7.4 and volume was made up to 500 mL.
# Stock solutions of the test compounds were prepared in DMSO at a concentration of 1 mM.
# To this microsomal mix 1.42 μL (1 mM) of test compound and positive control were spiked, from this mix 70 μL was transferred to 96 well plate and pre-incubated at 37° C. for 5 min. […] The plates were centrifuged at 4000 RPM for 15 min and 100 μL aliquots were submitted for analysis by LC-MS/MS.
# Samples were monitored for parent compound disappearance in MRM mode using LC-MS/MS. The LC-MS/MS conditions and MRM chromatogram will be provided as per client request.
# The peak area ratios of analyte versus internal standard were used to calculate the % remaining at the end of 60 minutes in presence NADPH.
# [14] = Human betaherpesvirus 5, HCMV primary assay, virus strain AD169, HFF cells, read-out: EC50
# [15] = Human betaherpesvirus 5, HCMV primary assay, virus strain AD169, HFF cells, read-out: EC90
# [16] = Human alphaherpesvirus 3, VZV primary assay, strain Ellen, cell line HFF, read-out: EC50
# [17] = Human alphaherpesvirus 3, VZV primary assay, strain Ellen, cell line HFF, read-out: EC90
# [18] = Human alphaherpesvirus 1, HSV1 primary assay, strain E-377, HFF cells, read-out: EC50
# [19] = Human alphaherpesvirus 1, HSV1 primary assay, strain E-377, HFF cells, read-out: EC90
# [20] = Human alphaherpesvirus 2, HSV2 primary assay, strain G, HFF cells, read-out: EC50
# [21] = Human alphaherpesvirus 2, HSV2 primary assay, strain G, HFF cells, read-out: EC90
# [22] = human gammaherpesvirus 4, Epstein-Barr primary assay, Akata strain, Akata cells, read-out: EC50
# [23] = human gammaherpesvirus 4, Epstein-Barr primary assay, Akata strain, Akata cells, read-out: EC90
# [24] = Adenovirus primary assay, HFF cells, Adenoid75 strain, read-out: EC50
# [25] = Adenovirus primary assay, HFF cells, Adenoid75 strain
# [26] = Adeno secondary assay, strain Adenoid75, HFF cells, read-out: EC90
# [27] = Akata cells without virus induction
# [28] = Human betaherpesvirus 5, AD169, HFF
# [29] = human gammaherpesvirus 4, Akata
# CDK9/cyclin T1, sequence (P50750 whole entry): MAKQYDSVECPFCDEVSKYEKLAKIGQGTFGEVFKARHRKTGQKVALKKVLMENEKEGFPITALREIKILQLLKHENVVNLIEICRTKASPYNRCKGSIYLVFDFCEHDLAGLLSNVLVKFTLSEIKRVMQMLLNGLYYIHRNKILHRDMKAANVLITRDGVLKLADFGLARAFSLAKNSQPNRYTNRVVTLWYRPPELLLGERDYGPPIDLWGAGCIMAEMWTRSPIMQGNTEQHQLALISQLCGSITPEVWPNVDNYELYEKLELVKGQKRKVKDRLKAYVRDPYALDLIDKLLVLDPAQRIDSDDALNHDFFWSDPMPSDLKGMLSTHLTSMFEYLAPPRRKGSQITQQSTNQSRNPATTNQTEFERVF
# CDK9/cyclin T1, sequence (O60563 whole entry partner): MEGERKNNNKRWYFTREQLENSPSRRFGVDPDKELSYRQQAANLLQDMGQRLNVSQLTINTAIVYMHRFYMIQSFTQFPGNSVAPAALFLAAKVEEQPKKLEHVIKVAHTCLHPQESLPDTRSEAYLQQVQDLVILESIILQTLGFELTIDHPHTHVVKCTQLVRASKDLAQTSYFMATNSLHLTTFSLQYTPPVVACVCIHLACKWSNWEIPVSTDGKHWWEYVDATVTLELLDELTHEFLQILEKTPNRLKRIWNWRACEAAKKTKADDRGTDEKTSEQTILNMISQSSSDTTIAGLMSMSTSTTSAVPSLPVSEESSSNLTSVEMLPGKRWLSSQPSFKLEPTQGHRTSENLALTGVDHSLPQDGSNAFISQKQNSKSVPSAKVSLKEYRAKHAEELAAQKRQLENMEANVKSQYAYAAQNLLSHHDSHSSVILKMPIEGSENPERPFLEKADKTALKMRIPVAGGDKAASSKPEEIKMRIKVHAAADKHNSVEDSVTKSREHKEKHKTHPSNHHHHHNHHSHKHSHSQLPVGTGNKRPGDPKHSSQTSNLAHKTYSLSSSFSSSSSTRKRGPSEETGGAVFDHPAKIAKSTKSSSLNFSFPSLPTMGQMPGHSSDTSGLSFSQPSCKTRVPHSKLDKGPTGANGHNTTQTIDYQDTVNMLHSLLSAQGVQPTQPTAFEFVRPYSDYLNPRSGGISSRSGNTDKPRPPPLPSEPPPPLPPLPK
smiles,measurement,setting,value
O=S1(=O)CCC(Nc2cc3c4ccc(F)cc4nn3cn2)CC1 [VKT-018],pEC50,HCMV strain AD169; [14],4.30
same,EC90,HCMV strain AD169; [15],50 µM
same,CC50,[1]; CC50,50 µM
same,pEC50,VZV strain Ellen; [16],4.30
same,EC90,VZV strain Ellen; [17],50 µM
same,CC50,[2],50 µM
same,pEC50,HSV1 strain E-377; [18],4.30
same,EC90,HSV1 strain E-377; [19],50 µM
same,CC50,[3],50 µM
same,pEC50,HSV2 strain G; [20],4.30
same,EC90,HSV2 strain G; [21],50 µM
same,CC50,[4],50 µM
same,pEC50,[5]; [22],4.34
same,EC90,[5]; [23],50 µM
same,pEC50,[6]; [24],5.43
same,EC90,[6]; [25],50 µM
same,CC50,[7],50 µM
same,EC90,[8]; [26],16.4 µM
same,CC50,[9]; uninfected HFF cell monolayers,97.1 µM
same,CC50 at 72 h,[10]; [27],50 µM
OCC1CCC(Nc2cc3c4ccc(F)cc4nn3cn2)CC1 (stereo not shown) [VKT-029],pEC50,HCMV strain AD169; [28],4.30
same,EC90,HCMV strain AD169; [28],50 µM
same,CC50,"[1]; HCMV primary assay, HFF cells, read-out: CC50",50 µM
same,pEC50,"VZV strain Ellen; Human alphaherpesvirus 3, HFF",5.40
same,EC90,"VZV strain Ellen; Human alphaherpesvirus 3, HFF",10 µM
same,CC50,"[2]; VZV Ellen primary assay, cell line HFF, read-out: CC50",45.1 µM
same,pEC50,[11],5.00
same,EC90,[11],10 µM
same,CC50,[12],47.2 µM
same,pEC50,"HSV1 strain E-377; Human alphaherpesvirus 1, HFF",4.30
same,EC90,"HSV1 strain E-377; Human alphaherpesvirus 1, HFF",50 µM
same,CC50,"[3]; HSV1 E-377 primary assay, HFF cells, read-out: CC50",50 µM
same,pEC50,"HSV2 strain G; Human alphaherpesvirus 2, HFF",4.30
same,EC90,"HSV2 strain G; Human alphaherpesvirus 2, HFF",50 µM
same,CC50,"[4]; HSV2 primary assay, HFF cells, read-out: CC50",50 µM
same,pEC50,[5]; [29],5.32
same,EC90,[5]; [29],12.1 µM
same,pEC50,[6]; HFF,5.29
same,CC50,"[7]; Adenovirus primary assay, HFF cells, read-out: CC50",50 µM
same,EC90,[8]; HFF,3.91 µM
same,CC50,[9],100 µM
same,CC50 at 72 h,[10],50 µM
"N[C@H]1CC[C@H](Nc2cc3c4ccc(F)cc4nn3cn2)CC1 [VKT-511, (1r,4r)-N1-(7-fluoropyrimido[1,6-b]indazol-3-yl)cyclohexane-1,4-diamine]",pIC50,CDK9/cyclin T1,7.33
same,pEC50,"HCMV strain AD169; HCMV primary assay, virus strain AD169, HFF cells, read-out: EC50",5.70
same,EC90,"HCMV strain AD169; HCMV primary assay, virus strain AD169, HFF cells, read-out: EC90",2 µM
same,CC50,HFF cells,6.98 µM
same,% Remaining at 60 min,[13],107%
Fc1ccc2c(c1)nn1cnc(NC3CCCOCC3)cc21 (stereo not shown) [VKT-015],pEC50,HCMV strain AD169; [14],5.00
same,EC90,HCMV strain AD169; [15],10 µM
same,CC50,[1]; CC50,27.7 µM
same,pEC50,VZV strain Ellen; [16],5.00
same,EC90,VZV strain Ellen; [17],10 µM
same,CC50,[2],39.7 µM
same,pEC50,HSV1 strain E-377; [18],4.30
same,EC90,HSV1 strain E-377; [19],50 µM
same,CC50,[3],50 µM
same,pEC50,HSV2 strain G; [20],4.30
same,EC90,HSV2 strain G; [21],50 µM
same,CC50,[4],50 µM
same,pEC50,[5]; [22],5.06
same,EC90,[5]; [23],29.9 µM
same,pEC50,[6]; [24],5.15
same,EC90,[6]; [25],10 µM
same,CC50,[7],41.8 µM
same,EC90,[8]; [26],17.5 µM
same,CC50,[9]; uninfected HFF cell monolayers,48.6 µM
same,CC50 at 72 h,[10]; [27],50 µM
